Like-named read-outs stand apart in the source and are kept apart here.
Molecular target: T1, BRD1 (Homo sapiens, UniProt O95696)
T1 sequence (O95696 556-688 limits assumed): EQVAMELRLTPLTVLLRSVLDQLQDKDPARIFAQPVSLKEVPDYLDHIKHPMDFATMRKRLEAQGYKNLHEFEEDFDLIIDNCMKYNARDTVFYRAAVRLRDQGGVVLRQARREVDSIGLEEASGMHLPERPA
Test: BromoScan selectivity panel (Kd)
Assay type: binding

`Cc1noc(C)c1-c1ccc(-c2nc3cnccn3c2NC(C)(C)C)cc1` [UMB32, N-(tert-butyl)-2-(4-(3,5-dimethylisoxazol-4-yl)phenyl)imidazo[1,2-a]pyrazin-3-amine] was tested, and the Kd (Table 8, read-out: Kd (nM) BRD1) was no less than 40000 nM and the Kd (Table 9, read-out: BromoScan Kd, nM BRD1) was no less than 40000 nM.
